Reference: patent publication US20020137929A1, “1 - (3-heterocyclylphenyl) isothiourea, -isourea, -guanidine and -amidine herbicidal agents” (Intellectual Property Department, BASF Aktiengesellschaft, priority 1998, published 2002)

Columns and labels:
[1] = system: CASOB (Sicklepod); experiment: Postemergence herbicidal evaluation; format: in vivo, Cassia obtusifolia; details: postemergence
In short: (§1)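 Visual 0-9 injury score (stand, vigor, malformation, size, chlorosis, appearance vs untreated) taken four to five weeks post-spray, averaged across repeat tests. Test plants about two weeks old; foliar spray of acetone/water (1:1) with 0.5% surfactant delivering ~0.0156-0.500 kg active/ha.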

[2] = system: CHEAL (Lambsquarters, Common); experiment: Postemergence herbicidal evaluation; format: in vivo, Chenopodium album; details: postemergence
In short: as §1

[3] = system: GALAP (Galium); experiment: Postemergence herbicidal evaluation; format: in vivo, Galium aparine; details: postemergence
In short: as §1

[4] = system: ORYSAT (Rice, Tebonnet); experiment: Postemergence herbicidal evaluation; format: in vivo, Oryza sativa, (L.) Tebonnet; details: postemergence
In short: as §1

[5] = system: ZEAMX (Corn, Field); experiment: Postemergence herbicidal evaluation; format: in vivo, Zea mays; details: postemergence
In short: as §1

[6] = system: AMBEL (Ragweed, Common); experiment: Preemergence herbicidal evaluation; format: in vivo, Ambrosia artemisifolia; details: preemergence, rated 4-5 weeks after treatment, 0-9 scale
In short: (§2)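 Steps: mix seeds into potting soil; plant atop ~1 inch soil; spray compound in aqueous acetone (~0.0156-0.500 kg/ha equivalent); maintain in greenhouse with watering; rate visually 0-9 versus control at 4-5 weeks.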

[7] = system: SETVI (Foxtail, Green); experiment: Preemergence herbicidal evaluation; format: in vivo, Setaria viridis; details: preemergence, rated 4-5 weeks after treatment, 0-9 scale
In short: as §2

[8] = system: GLXMAW (Soybean, Williams); experiment: Preemergence herbicidal evaluation; format: in vivo, Glycine max, (L.) Merr. cv Williams; details: preemergence, rated 4-5 weeks after treatment, 0-9 scale
In short: as §2

[9] = system: ORYSAT (Rice, Tebonnet); experiment: Preemergence herbicidal evaluation; format: in vivo, Oryza sativa, (L.) Tebonnet; details: preemergence, rated 4-5 weeks after treatment, 0-9 scale
In short: as §2

[10] = system: CYPSE (Flatsedge); experiment: Preemergence weed control under flooded paddy conditions; format: in vivo, Cyperus serotinus; details: rated 3-4 weeks after treatment
In short: (§3)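 Herbicidal effect is scored visually on a 0-9 scale against an untreated control, three to four weeks after compounds are pipetted into the flood water (1.5 to 3 cm deep) over seeds planted in silt loam at 0.5 cm depth. Rates: about 0.0313 to 0.500 kg/ha.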

[11] = system: MOOVA (Monochoria); experiment: as above; format: in vivo, Monochoria vaginalis; details: rated 3-4 weeks after treatment
In short: as §3

[12] = system: CYPIR (Rice Flatsedge); experiment: Postemergence weed control under flooded paddy conditions; format: in vivo, Cyperus iria; details: postemergence weeds, rated 3 to 4 weeks after treatment
In short: (§4)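 Injury ratings (0–9 scale covering stand, vigor, malformation, size, chlorosis and overall appearance versus control) were made three to four weeks after treatment. Test material, about 0.0313 to 0.500 kg/ha a.i. in 50/50 v/v aqueous/acetone, was added to flood water 1.5 to 3 cm deep over 3 to 5 cm weeds and 1.5 to 2.5 leaf rice.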

[13] = system: CYPSE (Flatsedge); experiment: as above; format: in vivo, Cyperus serotinus; details: postemergence weeds, rated 3 to 4 weeks after treatment
In short: as §4

[14] = system: SAGPY (Arrowhead (Pygmaea)); experiment: as above; format: in vivo, Sagittaria pygmaea; details: postemergence weeds, rated 3 to 4 weeks after treatment
In short: as §4

CC(C)OC(=O)CC1SC(=Nc2cc(-n3c(=O)cc(C(F)(F)F)n(C)c3=O)c(F)cc2Cl)N(C)C1=O (stereo not shown) [Compound 89, Isopropyl 2-{{2-chloro-5-[3,6-dihydro-3-methyl-2,6-dioxo-4-(trifluoromethyl)-1(2H)-pyrimidinyl]-4-fluorophenyl}imino}-3-methyl-4-oxo-5-thiazolidineacetate]
CASOB herbicidal rating ([1]; rate 0.0158 kg/ha): 0.0
CASOB herbicidal rating ([1]; rate 0.0313 kg/ha): 6.0
CASOB herbicidal rating ([1]; rate 0.0625 kg/ha): 9.0
CASOB herbicidal rating ([1]; rate 0.1250 kg/ha): 9.0
CHEAL herbicidal rating ([2]; rate 0.0158 kg/ha): 4.0
CHEAL herbicidal rating ([2]; rate 0.0313 kg/ha): 9.0
CHEAL herbicidal rating ([2]; rate 0.0625 kg/ha): 9.0
CHEAL herbicidal rating ([2]; rate 0.1250 kg/ha): 9.0
GALAP herbicidal rating ([3]; rate 0.0158 kg/ha): 3.0
GALAP herbicidal rating ([3]; rate 0.0313 kg/ha): 4.0
GALAP herbicidal rating ([3]; rate 0.0625 kg/ha): 5.0
GALAP herbicidal rating ([3]; rate 0.1250 kg/ha): 9.0
ORYSAT herbicidal rating ([4]; rate 0.0158 kg/ha): 1.0
ORYSAT herbicidal rating ([4]; rate 0.0313 kg/ha): 4.0
ORYSAT herbicidal rating ([4]; rate 0.0625 kg/ha): 6.5
ORYSAT herbicidal rating ([4]; rate 0.1250 kg/ha): 8.0
ZEAMX herbicidal rating ([5]; rate 0.0158 kg/ha): 7.5
ZEAMX herbicidal rating ([5]; rate 0.0313 kg/ha): 7.5
ZEAMX herbicidal rating ([5]; rate 0.0625 kg/ha): 8.5
ZEAMX herbicidal rating ([5]; rate 0.1250 kg/ha): 9.0
AMBEL rating ([6]; 0.0156 kg/ha): 0.0
AMBEL rating ([6]; 0.0313 kg/ha): 0.5
AMBEL rating ([6]; 0.0625 kg/ha): 2.0
AMBEL rating ([6]; 0.1250 kg/ha): 6.5
AMBEL rating ([6]; 0.2500 kg/ha): 6.5
AMBEL rating ([6]; 0.5000 kg/ha): 9.0
SETVI rating ([7]; 0.0156 kg/ha): 0.0
SETVI rating ([7]; 0.0313 kg/ha): 1.5
SETVI rating ([7]; 0.0625 kg/ha): 1.5
SETVI rating ([7]; 0.1250 kg/ha): 9.0
SETVI rating ([7]; 0.2500 kg/ha): 9.0
SETVI rating ([7]; 0.5000 kg/ha): 9.0
GLXMAW rating ([8]; 0.0156 kg/ha): 0.0
GLXMAW rating ([8]; 0.0313 kg/ha): 0.0
GLXMAW rating ([8]; 0.0625 kg/ha): 1.0
GLXMAW rating ([8]; 0.1250 kg/ha): 2.0
GLXMAW rating ([8]; 0.2500 kg/ha): 8.5
GLXMAW rating ([8]; 0.5000 kg/ha): 9.0
ORYSAT rating ([9]; 0.0156 kg/ha): 0.0
ORYSAT rating ([9]; 0.0313 kg/ha): 0.5
ORYSAT rating ([9]; 0.0625 kg/ha): 2.0
ORYSAT rating ([9]; 0.1250 kg/ha): 4.5
ORYSAT rating ([9]; 0.2500 kg/ha): 8.0
ORYSAT rating ([9]; 0.5000 kg/ha): 9.0
CYPSE herbicidal effect rating ([10]; 0.0313 kg/ha): 0.0
CYPSE herbicidal effect rating ([10]; 0.0625 kg/ha): 0.0
CYPSE herbicidal effect rating ([10]; 0.1250 kg/ha): 4.0
CYPSE herbicidal effect rating ([10]; 0.2500 kg/ha): 6.0
MOOVA herbicidal effect rating ([11]; 0.0313 kg/ha): 9.0
MOOVA herbicidal effect rating ([11]; 0.0625 kg/ha): 9.0
MOOVA herbicidal effect rating ([11]; 0.1250 kg/ha): 9.0
MOOVA herbicidal effect rating ([11]; 0.2500 kg/ha): 9.0
Herbicidal rating CYPIR ([12]; Rate 0.0313 kg/ha): 0.0
Herbicidal rating CYPIR ([12]; Rate 0.0625 kg/ha): 0.0
Herbicidal rating CYPIR ([12]; Rate 0.1250 kg/ha): 2.0
Herbicidal rating CYPIR ([12]; Rate 0.2500 kg/ha): 4.0
Herbicidal rating CYPSE ([13]; Rate 0.0313 kg/ha): 0.0
Herbicidal rating CYPSE ([13]; Rate 0.0625 kg/ha): 0.0
Herbicidal rating CYPSE ([13]; Rate 0.1250 kg/ha): 4.0
Herbicidal rating CYPSE ([13]; Rate 0.2500 kg/ha): 6.0
Herbicidal rating SAGPY ([14]; Rate 0.0313 kg/ha): 4.0
Herbicidal rating SAGPY ([14]; Rate 0.0625 kg/ha): 5.0
Herbicidal rating SAGPY ([14]; Rate 0.1250 kg/ha): 9.0
Herbicidal rating SAGPY ([14]; Rate 0.2500 kg/ha): 9.0
